Experimental data as given in ChEMBL document CHEMBL4507303, “Data for DCP probe TP-004” (2021).

Key:
[1] = target: Tyrosine-protein kinase ZAP-70 (Homo sapiens) (UniProt P43403); conditions: Compound concentration 1000.0 nM
[2] = target: Tyrosine-protein kinase ABL1 (Homo sapiens) (UniProt P00519); conditions: Compound concentration 1000.0 nM
[3] = tested on: Tyrosine-protein kinase ABL1 (Homo sapiens), P00519 [F317I]; conditions: Compound concentration 1000.0 nM
[4] = target: Cyclin-G-associated kinase (Homo sapiens) (UniProt O14976); conditions: Compound concentration 1000.0 nM
Sequence of Cyclin-G-associated kinase (Homo sapiens) (O14976 whole entry): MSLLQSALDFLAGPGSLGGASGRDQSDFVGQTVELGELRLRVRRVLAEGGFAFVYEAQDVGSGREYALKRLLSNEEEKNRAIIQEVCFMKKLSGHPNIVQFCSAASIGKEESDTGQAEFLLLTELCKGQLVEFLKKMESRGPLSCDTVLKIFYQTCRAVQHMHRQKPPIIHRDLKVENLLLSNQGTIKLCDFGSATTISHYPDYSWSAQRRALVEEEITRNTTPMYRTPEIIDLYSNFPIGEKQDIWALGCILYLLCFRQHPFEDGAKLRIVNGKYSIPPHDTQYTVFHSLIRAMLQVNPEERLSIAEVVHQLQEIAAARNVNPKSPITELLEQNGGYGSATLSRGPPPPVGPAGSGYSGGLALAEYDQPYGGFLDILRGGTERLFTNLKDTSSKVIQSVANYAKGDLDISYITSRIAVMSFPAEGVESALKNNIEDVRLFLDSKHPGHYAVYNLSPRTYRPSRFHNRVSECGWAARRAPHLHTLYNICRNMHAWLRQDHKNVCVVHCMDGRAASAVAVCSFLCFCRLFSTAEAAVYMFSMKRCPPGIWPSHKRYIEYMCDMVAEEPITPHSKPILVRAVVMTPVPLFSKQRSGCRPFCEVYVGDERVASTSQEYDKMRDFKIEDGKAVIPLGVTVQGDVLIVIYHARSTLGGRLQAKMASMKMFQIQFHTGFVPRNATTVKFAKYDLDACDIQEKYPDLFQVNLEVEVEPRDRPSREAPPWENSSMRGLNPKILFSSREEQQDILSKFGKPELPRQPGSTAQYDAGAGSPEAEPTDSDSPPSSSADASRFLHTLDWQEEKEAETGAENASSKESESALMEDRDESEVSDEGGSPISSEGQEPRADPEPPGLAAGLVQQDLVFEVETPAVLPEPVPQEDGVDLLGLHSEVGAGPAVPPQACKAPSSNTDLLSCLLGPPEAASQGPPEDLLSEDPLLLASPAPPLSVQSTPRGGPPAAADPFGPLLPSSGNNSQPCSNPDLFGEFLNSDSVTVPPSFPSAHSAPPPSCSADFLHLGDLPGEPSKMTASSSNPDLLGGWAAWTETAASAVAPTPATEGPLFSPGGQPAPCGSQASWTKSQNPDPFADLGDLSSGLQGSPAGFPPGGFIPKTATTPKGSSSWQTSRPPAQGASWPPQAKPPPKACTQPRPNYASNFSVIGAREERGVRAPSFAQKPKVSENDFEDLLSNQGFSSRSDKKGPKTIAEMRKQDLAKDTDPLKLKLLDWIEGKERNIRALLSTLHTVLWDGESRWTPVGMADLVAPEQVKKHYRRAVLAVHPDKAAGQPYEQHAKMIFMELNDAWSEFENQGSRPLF

[5] = target: Non-receptor tyrosine-protein kinase TYK2 (Homo sapiens) (UniProt P29597); conditions: Compound concentration 1000.0 nM
[6] = target: Myosin light chain kinase 2, skeletal/cardiac muscle (Homo sapiens) (UniProt Q9H1R3); conditions: Compound concentration 1000.0 nM
[7] = target: Ephrin type-A receptor 4 (Homo sapiens) (UniProt P54764); conditions: Compound concentration 1000.0 nM
Sequence of Ephrin type-A receptor 4 (Homo sapiens) (P54764 whole entry): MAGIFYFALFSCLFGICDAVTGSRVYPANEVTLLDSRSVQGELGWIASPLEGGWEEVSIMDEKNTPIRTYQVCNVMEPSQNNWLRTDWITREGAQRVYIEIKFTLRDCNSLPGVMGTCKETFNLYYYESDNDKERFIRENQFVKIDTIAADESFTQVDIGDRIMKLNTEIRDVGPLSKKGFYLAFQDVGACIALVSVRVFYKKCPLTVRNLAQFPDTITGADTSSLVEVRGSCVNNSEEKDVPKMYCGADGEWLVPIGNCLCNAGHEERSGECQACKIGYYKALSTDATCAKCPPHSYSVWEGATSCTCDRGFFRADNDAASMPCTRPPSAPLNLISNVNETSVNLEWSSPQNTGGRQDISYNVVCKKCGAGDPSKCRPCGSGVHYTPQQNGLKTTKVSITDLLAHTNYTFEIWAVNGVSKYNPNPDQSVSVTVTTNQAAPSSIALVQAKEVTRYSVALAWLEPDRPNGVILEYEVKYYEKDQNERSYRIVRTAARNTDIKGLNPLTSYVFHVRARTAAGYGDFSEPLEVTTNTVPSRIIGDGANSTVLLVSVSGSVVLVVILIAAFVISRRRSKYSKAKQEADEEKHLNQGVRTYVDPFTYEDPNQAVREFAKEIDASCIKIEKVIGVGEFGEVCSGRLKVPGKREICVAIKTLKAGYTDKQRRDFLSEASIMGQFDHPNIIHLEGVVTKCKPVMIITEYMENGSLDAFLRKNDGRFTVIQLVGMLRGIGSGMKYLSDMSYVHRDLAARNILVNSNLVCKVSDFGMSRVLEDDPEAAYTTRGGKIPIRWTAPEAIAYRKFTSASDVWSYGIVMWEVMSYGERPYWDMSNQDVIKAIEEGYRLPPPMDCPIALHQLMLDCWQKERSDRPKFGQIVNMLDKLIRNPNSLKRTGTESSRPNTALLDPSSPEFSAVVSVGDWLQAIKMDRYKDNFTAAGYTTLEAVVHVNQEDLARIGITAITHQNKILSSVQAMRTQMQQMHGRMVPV

[8] = target: Serine/threonine-protein kinase MARK2 (Homo sapiens) (UniProt Q7KZI7); conditions: Compound concentration 1000.0 nM
[9] = target: Serine/threonine-protein kinase LATS1 (Homo sapiens) (UniProt O95835); conditions: Compound concentration 1000.0 nM
[10] = target: Serine/threonine-protein kinase pim-3 (Homo sapiens) (UniProt Q86V86); conditions: Compound concentration 1000.0 nM
[11] = target: Dual specificity protein kinase CLK3 (Homo sapiens) (UniProt P49761); conditions: Compound concentration 1000.0 nM
[12] = target: Phosphatidylinositol 4-phosphate 5-kinase type-1 alpha (Homo sapiens) (UniProt Q99755); conditions: Compound concentration 1000.0 nM
[13] = target: Protein kinase C epsilon type (Homo sapiens) (UniProt Q02156); conditions: Compound concentration 1000.0 nM
Sequence of Protein kinase C epsilon type (Homo sapiens) (Q02156 whole entry): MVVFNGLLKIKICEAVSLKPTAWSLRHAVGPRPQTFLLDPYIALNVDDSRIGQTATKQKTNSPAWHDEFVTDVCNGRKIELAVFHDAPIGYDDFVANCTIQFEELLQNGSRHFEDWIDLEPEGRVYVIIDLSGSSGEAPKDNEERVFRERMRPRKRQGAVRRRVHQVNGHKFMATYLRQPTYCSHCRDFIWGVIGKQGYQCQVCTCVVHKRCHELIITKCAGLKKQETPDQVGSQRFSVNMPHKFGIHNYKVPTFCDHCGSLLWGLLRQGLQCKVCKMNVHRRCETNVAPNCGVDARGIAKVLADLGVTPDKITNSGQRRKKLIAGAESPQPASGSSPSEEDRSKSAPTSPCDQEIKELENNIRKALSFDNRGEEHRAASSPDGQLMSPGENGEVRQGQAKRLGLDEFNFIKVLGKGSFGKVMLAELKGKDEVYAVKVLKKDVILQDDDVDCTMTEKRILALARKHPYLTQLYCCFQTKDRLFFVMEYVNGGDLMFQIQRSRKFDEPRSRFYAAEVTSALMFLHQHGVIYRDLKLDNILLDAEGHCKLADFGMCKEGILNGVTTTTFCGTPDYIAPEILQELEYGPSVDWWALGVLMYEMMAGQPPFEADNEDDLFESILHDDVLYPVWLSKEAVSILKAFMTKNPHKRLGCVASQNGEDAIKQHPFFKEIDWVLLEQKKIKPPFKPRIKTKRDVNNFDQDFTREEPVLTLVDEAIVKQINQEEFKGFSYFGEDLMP

[14] = target: Serine/threonine-protein kinase PAK 2 (Homo sapiens) (UniProt Q13177); conditions: Compound concentration 1000.0 nM
[15] = target: Ribosomal protein S6 kinase alpha-3 (Homo sapiens) (UniProt P51812); conditions: Compound concentration 1000.0 nM
[16] = target: Histamine H3 receptor (Homo sapiens) (UniProt Q9Y5N1); conditions: Compound concentration 10.0 uM
[17] = target: Epithelial discoidin domain-containing receptor 1 (Homo sapiens) (UniProt Q08345); conditions: Compound concentration 1000.0 nM
[18] = target: Mitogen-activated protein kinase kinase kinase 3 (Homo sapiens) (UniProt Q99759); conditions: Compound concentration 1000.0 nM
Sequence of Mitogen-activated protein kinase kinase kinase 3 (Homo sapiens) (Q99759 whole entry): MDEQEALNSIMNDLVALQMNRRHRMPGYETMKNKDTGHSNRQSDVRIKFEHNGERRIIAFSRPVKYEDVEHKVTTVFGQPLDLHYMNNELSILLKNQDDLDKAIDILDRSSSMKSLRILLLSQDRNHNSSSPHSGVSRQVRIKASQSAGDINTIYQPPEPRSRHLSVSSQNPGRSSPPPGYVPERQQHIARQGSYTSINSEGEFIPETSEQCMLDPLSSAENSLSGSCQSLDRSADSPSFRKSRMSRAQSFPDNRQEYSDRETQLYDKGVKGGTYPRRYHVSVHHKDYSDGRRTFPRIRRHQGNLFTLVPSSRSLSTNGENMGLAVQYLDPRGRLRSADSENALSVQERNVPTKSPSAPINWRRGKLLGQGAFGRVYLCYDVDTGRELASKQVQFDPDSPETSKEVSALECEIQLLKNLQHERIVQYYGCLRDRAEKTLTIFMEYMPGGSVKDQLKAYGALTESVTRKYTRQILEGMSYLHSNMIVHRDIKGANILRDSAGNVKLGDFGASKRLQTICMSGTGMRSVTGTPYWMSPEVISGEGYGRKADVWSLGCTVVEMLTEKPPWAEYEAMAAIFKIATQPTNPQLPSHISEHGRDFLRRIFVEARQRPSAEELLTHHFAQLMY

[19] = target: Cyclin-dependent kinase 11A (Homo sapiens) (UniProt Q9UQ88); conditions: Compound concentration 1000.0 nM

Sequence of Tyrosine-protein kinase ABL1 (Homo sapiens) (P00519 whole entry): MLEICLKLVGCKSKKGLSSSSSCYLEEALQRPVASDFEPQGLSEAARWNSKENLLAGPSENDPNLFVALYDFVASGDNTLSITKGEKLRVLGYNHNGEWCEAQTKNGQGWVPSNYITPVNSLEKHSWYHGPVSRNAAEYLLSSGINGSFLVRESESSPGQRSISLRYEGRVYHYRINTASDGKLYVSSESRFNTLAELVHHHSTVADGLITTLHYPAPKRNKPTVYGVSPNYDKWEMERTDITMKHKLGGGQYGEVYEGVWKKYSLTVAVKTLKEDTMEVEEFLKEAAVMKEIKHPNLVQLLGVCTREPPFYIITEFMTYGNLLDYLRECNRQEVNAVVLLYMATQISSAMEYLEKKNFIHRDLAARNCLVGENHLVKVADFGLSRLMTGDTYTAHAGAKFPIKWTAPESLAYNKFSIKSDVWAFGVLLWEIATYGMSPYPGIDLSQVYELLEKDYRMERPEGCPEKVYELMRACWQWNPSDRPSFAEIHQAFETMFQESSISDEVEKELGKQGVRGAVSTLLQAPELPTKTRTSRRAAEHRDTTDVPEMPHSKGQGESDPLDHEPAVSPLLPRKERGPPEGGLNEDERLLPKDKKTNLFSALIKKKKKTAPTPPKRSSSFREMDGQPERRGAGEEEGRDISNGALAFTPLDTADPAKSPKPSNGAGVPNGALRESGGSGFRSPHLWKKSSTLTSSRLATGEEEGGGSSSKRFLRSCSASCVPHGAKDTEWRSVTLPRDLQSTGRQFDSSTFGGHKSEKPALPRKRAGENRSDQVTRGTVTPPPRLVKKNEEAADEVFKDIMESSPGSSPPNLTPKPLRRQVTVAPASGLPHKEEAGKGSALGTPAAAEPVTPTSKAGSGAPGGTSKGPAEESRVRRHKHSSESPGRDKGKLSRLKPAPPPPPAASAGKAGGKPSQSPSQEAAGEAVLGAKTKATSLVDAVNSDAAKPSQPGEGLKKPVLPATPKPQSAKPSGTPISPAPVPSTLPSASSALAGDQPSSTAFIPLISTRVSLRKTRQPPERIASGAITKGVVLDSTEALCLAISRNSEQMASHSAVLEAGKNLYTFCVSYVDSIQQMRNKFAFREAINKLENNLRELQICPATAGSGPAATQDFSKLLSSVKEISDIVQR
Sequence of Tyrosine-protein kinase ABL1 (Homo sapiens), P00519 [F317I] (P00519 whole entry F317I): as the sequence (P00519 whole entry) above, with F317I counted along it

Cc1nc(N2CC[C@@H](O)C2)ncc1-c1cc(C(F)(F)F)cc2[nH]ncc12 [TP-004]
inactive: residual activity [1] 65% | residual activity [2] 61% | residual activity [3] 73% | residual activity [4] 83% | residual activity [5] 70% | residual activity [6] 100% | residual activity [7] 100% | residual activity [8] 100% | residual activity [9] 81% | residual activity [10] 100% | residual activity [11] 76% | residual activity [12] 86% | residual activity [13] 88% | residual activity [14] 100% | residual activity [15] 58% | inhibition [16] 28.6% | residual activity [17] 100% | residual activity [18] 82% | residual activity [19] 100%
